In US7763624B2, “Substituted pyrazolo[3,4-d]pyrimidines as ACK-1 and LCK inhibitors” (Amgen Inc., priority 2005, dated 2010):
Read-outs that look alike come from different tables or passages of the source.

Key:
[1] = biological target: T1, LCK (Homo sapiens, UniProt P06239); test: LCK-Homogeneous Time Resolved Fluorescent (HTRF) Kinase Assay; type: biochemical
T1 construct: 15 μL of LCK KD GST (225-509) for a final volume of 40 μL; GST
Protocol: LCK-Homogeneous Time Resolved Fluorescent (HTRF) Kinase Assay
The LCK HTRF assay begins with LCK in the presence of ATP phosphorylating the biotinylated peptide Gastrin. The reaction incubates for 90 min. To quench the assay detection reagents are added which both stop the reaction by diluting out the enzyme and chelating the metals due to the presence of EDTA. Once the detection reagents are added the assay incubates for 30 min to allow for equilibration of the detection reagents.
Buffer conditions are as follows: 50 mM HEPES pH 7.5, 50 mM NaCl, 20 mM MgCl2, 5 mM MnCl2, 2 mM DTT, 0.05% BSA.
The assay is quenched and stopped with 160 μL of a detection reagent. Detection reagents are as follows: Buffer made of 50 mM Tris, pH 7.5, 100 mM NaCl, 3 mM EDTA, 0.05% BSA, 0.1% Tween20.
The assay plate is read in either a Discovery or a RubyStar.

[2] = biological target: T2, ACK1 (Homo sapiens, UniProt Q07912); test: ACK1 Enzymatic Assay (PGT/autophosphorylation ELISA); type: biochemical
T2 construct: a fusion of an N-terminal (His)6 Tag with amino acids 117 to 489 of ACK1; (His)6 (N); made in house; host or cells: baculovirus infected Hi-5 insect cells
Protocol: IC50 values of compounds of the invention may be assessed as follows. The ACK1 kinase assay utilizes a protein expressed in baculovirus infected Hi-5 cells (a fusion of an N-terminal (His)6 Tag with amino acids 117 to 489 of ACK1) purified by affinity chromatography on a Ni-NTA column. The substrate for the reaction is ACK1 itself (autophosphorylation) and poly-Glutamic acid-Tyrosine (PGT (4:1), Sigma catalog #PO275). The PGT is coated to Nunc 96 well plates at 80 μg/mL overnight at 4° C. The morning after coating, the plates are washed twice, and […] reaction buffer (10 mM Hepes, pH 7.6; 20 mM MgCl2; 75 mM NaCl, 0.125% TWEEN20 (polyoxyethylene sorbitan monolaurate); 1 mM DTT) with 5 μM ATP are added to each well. Test compounds are added in […] DMSO, and the reaction is started by addition of […] kinase in assay buffer. The reaction proceeds for 2 h at room temperature. Next, the plates are washed four times, and the level of tyrosine phosphorylation in a given well is quantified by standard ELISA assay utilizing a phosphotyrosine antibody (PY20, Pierce).

[3] = test system: C8 cells; test: ACK1 Cell Based Assay (survival under low serum, Cytotox One); conditions: read-out: ACK1 Cell-based IC50
Protocol: ACK1 Cell Based Assay The ACK1 cell based assay is designed to find inhibitors of ACK1 kinase activity which would be prime candidates for the development of anticancer drugs. […] After 20 to 24 h incubation at 37° C. and 5% CO2, cell viability is determined using the Cytotox One kit (Promega) according to the manufacturer's instructions.

[4] = ACK1-dependent C8 cells, 0.125% FCS, 20 to 24 h

T1 sequence (P06239 225-509): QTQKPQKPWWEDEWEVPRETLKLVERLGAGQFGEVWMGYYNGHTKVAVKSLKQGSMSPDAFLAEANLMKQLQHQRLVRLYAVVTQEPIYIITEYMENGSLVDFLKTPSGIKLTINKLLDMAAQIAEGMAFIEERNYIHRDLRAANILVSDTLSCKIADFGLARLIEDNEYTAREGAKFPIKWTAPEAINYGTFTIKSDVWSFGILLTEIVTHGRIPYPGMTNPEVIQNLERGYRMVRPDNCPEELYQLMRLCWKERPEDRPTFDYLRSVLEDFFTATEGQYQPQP
T2 sequence (Q07912 117-489): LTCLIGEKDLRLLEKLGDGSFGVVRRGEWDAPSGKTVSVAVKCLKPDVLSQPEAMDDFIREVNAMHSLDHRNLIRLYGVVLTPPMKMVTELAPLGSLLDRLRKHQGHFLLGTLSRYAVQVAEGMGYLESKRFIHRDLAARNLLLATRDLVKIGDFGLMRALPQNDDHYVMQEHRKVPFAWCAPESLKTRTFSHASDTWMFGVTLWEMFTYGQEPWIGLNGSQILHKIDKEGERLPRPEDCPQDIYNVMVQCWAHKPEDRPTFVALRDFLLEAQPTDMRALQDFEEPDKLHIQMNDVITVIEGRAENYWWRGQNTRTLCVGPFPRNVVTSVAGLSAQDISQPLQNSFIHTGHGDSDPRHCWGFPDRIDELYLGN

Structure (SMILES)	Ki [1]	Ki [2]	IC50 [3, 4]	IC50 [3]
Cc1cccc(C)c1Nc1nn(CCN2CCOCC2)c2nc(Nc3ccc(N4CCN(C)CC4)cc3)ncc12 [Compound 53, N^3-(2,6-dimethyl-phenyl)-N^6-[4-(4-methyl-piperazin-1-yl)-phenyl]-1-(2-morpholin-4-yl-ethyl)-1H-pyrazolo[3,4-d]pyrimidine-3,6-diamine]	< 10 nM	10 to 100 nM	> 100 nM	–
COCCOc1ccc(Nc2ncc3c(Nc4c(C)cccc4C)nn(CCC(C)(C)OC)c3n2)cc1 [Compound 54, N^3-(2,6-Dimethyl-phenyl)-N-6-[4-(2-methoxy-ethoxy)-phenyl]-1-(3-methoxy-3-methyl-butyl)-1H-pyrazolo[3,4-d]pyrimidine-3,6-diamine]	< 10 nM	10 to 100 nM	> 100 nM	–
COC(C)(C)CCn1nc(Nc2c(C)cccc2C)c2cnc(Nc3ccc(N4CCN(C)CC4)cc3)nc21 [Compound 55, N^3-(2,6-Dimethyl-phenyl)-1-(3-methoxy-3-methyl-butyl)-N-6-[4-(methylpiperazin-1-yl)phenyl]-1H-pyrazolo[3,4-d]pyrimidine-3,6-diamine]	< 10 nM	< 10 nM	10 to 100 nM	–
COC(C)(C)CCn1nc(Nc2c(C)cccc2C)c2cnc(Nc3ccc(OCCCN4CCCCC4)c(F)c3)nc21 [Compound 57]	10 to 100 nM	10 to 100 nM	10 to 100 nM	–
COC(C)(C)CCn1nc(Nc2c(C)cccc2C)c2ccc(Nc3ccccc3)cc21 [Compound 59]	< 10 nM	< 10 nM	10 to 100 nM	–
COC(C)(C)CCn1nc(Nc2c(C)cccc2C)c2ccc(Nc3ccc(N4CC(C)NC(C)C4)cc3)cc21 (stereo not drawn) [Compound 60, N^3-(2,6-Dimethylphenyl)-1-N^6-(4-(3,5-dimethylpiperazin-1-yl)phenyl)-1-(3-methoxy-3-methylbutyl)-1H-indazole-3,6-diamine]	< 10 nM	< 10 nM	10 to 100 nM	–
Cc1cccc(C)c1Nc1nn(CC2CCOCC2)c2nc(Nc3ccc(N4CCNCC4)cc3)ncc12 [Compound 61]	< 10 nM	< 10 nM	< 10 nM	–
Cc1cccc(C)c1Nc1nn(CC2CCOCC2)c2nc(Nc3ccc(OCCCN4CCCCC4)c(F)c3)ncc12 [Compound 62]	< 10 nM	< 10 nM	10 to 100 nM	–
COC[C@H]1CCCN1CCCn1nc(Nc2c(C)cccc2C)c2ccc(Nc3ccc(N4CCNCC4)cc3)cc21 [Compound 67, (R)—N^3-(2,6-Dimethylphenyl)-1-(3-(2-(methoxymethyl)pyrrolidin-1-yl)propyl)-N^6-(4-piperazin-1-yl)phenyl-1H-indazole-3,6-diamine]	< 10 nM	< 10 nM	10 to 100 nM	–
COC(C)(C)CCn1nc(Nc2ccccc2)c2cnc(Nc3ccccc3)nc21 [Compound 74, 1-(3-Methoxy-3-methyl-butyl)-N^3, N^6-diphenyl-1H-pyrazolo[3,4-d]pyrimidine-3,6-diamine]	> 100 nM	> 100 nM	–	> 100 nM
COC(C)(C)CCn1nc(Nc2ccccc2)c2cnc(Nc3ccc(N4CCN(C)CC4)cc3)nc21 [Compound 75]	10 to 100 nM	> 100 nM	–	> 100 nM
COC(C)(C)CCn1nc(Nc2c(C)cc(C)cc2C)c2cnc(Nc3ccccc3)nc21 [Compound 76, 1-(3-Methoxy-3-methyl-butyl)-N^6-phenyl-N^3-(2,4,6-trimethyl-phenyl)-1H-pyrazolo[3,4-d]pyrimidine-3,6-diamine]	< 10 nM	> 100 nM	–	> 100 nM
COC(C)(C)CCn1nc(Nc2c(C)cc(C)cc2C)c2cnc(Nc3ccc(N4CCN(C)CC4)cc3)nc21 [Compound 77]	< 10 nM	10 to 100 nM	–	10 to 100 nM
COC(C)(C)CCn1nc(Nc2c(C)cc(F)cc2C)c2cnc(Nc3ccccc3)nc21 [Compound 78, N^3-(4-Fluoro-2,6-dimethyl-phenyl)-1-(3-methoxy-3-methyl-butyl)-N^6-phenyl-1H-pyrazolo[3,4-d]pyrimidine-3,6-diamine]	< 10 nM	10 to 100 nM	–	> 100 nM
